Assay results published in patent US20210163485A1, “Heterocyclic Compounds for the Treatment of Disease” (Oppilan Pharma Ltd., priority 2017, published 2021).

The molecules below were run against T1, full-length human S1P1 (Homo sapiens, UniProt P21453) (assay: GTPγS binding assay (scintillation proximity assay) with S1P1 membranes). Details: S1P1 membrane from CHO-K1 Gαqi5 cells; GTPγ35S SPA, 60 minutes incubation.
T1 construct: CHO-K1 Gαqi5 cells expression full-length human S1P1; expressed in transfected cells; host or cells: CHO-K1 Gαqi5 cells (membrane preparation)
T1 sequence (P21453 whole entry): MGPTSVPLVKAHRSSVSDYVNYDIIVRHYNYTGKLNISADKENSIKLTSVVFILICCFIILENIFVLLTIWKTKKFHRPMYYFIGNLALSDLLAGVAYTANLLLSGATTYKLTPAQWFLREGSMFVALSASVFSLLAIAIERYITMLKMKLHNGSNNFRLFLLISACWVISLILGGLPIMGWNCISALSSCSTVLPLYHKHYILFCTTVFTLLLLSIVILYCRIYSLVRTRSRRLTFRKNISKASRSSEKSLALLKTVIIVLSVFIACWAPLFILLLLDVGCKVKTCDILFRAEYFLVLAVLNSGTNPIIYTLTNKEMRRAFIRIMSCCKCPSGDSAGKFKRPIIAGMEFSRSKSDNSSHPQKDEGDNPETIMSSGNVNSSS
Assay type: biochemical
Procedure: S1P1 membrane is prepared from CHO-K1 Gαqi5 cells expression full-length human S1P1. Scintillation proximity assay (SPA) is performed by incubating membranes, GTPγ^35S, and compounds at various concentrations for 60 minutes. Wheat germ agglutinin-coated SPA beads are added and incubated for 60 minutes before centrifugation and scintillation counting.

Structure (SMILES)	EC50 [nM]
CC(CO)Oc1cc(Cl)c(-c2noc(-c3cn4cc(C(F)(F)F)ncc4n3)n2)cc1Cl (stereo not shown) [Compound 7, 2-(2,5-dichloro-4-(5-(6-(trifluoromethyl)imidazo[1,2-a]pyrazin-2-yl)-1,2,4-oxadiazol-3-yl)phenoxy)propan-1-ol]	< 100
OC[C@H](O)COc1cc(Cl)c(-c2noc(-c3cn4cc(C(F)(F)F)ncc4n3)n2)cc1Cl [Compound 8, (S)-3-(2,5-dichloro-4-(5-(6-(trifluoromethyl)imidazo[1,2-a]pyrazin-2-yl)-1,2,4-oxadiazol-3-yl)phenoxy)propane-1,2-diol]	< 100
OC[C@@H](O)COc1cc(Cl)c(-c2noc(-c3cn4cc(C(F)(F)F)ncc4n3)n2)cc1Cl [Compound 9, (R)-3-(2,5-dichloro-4-(5-(6-(trifluoromethyl)imidazo[1,2-a]pyrazin-2-yl)-1,2,4-oxadiazol-3-yl)phenoxy)propane-1,2-diol]	< 100
N[C@@H](CO)COc1cc(Cl)c(-c2noc(-c3cn4nc(C(F)(F)F)ccc4n3)n2)cc1Cl [Compound 19, (S)-2-amino-3-(2,5-dichloro-4-(5-(6-(trifluoromethyl)imidazo[1,2-b]pyridazin-2-yl)-1,2,4-oxadiazol-3-yl)phenoxy)propan-1-ol]	< 100
CC(CO)Oc1cc(Cl)c(-c2noc(-c3cn4nc(C(F)(F)F)ccc4n3)n2)cc1Cl (stereo not shown) [Compound 21, 2-(2,5-dichloro-4-(5-(6-(trifluoromethyl)imidazo[1,2-b]pyridazin-2-yl)-1,2,4-oxadiazol-3-yl)phenoxy)propan-1-ol]	100 to 1000
OC[C@H](O)COc1cc(Cl)c(-c2noc(-c3cn4nc(C(F)(F)F)ccc4n3)n2)cc1Cl [Compound 22, (S)-3-(2,5-dichloro-4-(5-(6-(trifluoromethyl)imidazo[1,2-b]pyridazin-2-yl)-1,2,4-oxadiazol-3-yl)phenoxy)propane-1,2-diol]	100 to 1000
N[C@@H](CO)COc1cc(Cl)c(-c2noc(-c3cn4cc(C(F)(F)F)ncc4n3)n2)cc1Cl [Compound 24, (S)-2-amino-3-(2,5-dichloro-4-(5-(6-(trifluoromethyl)imidazo[1,2-a]pyrazin-2-yl)-1,2,4-oxadiazol-3-yl)phenoxy)propan-1-ol]	< 100
